# According to patent EP1013272A1, “Manipulation of the activity of a nitric oxide radical production pathway for the treatment of diseases associated with the presence of oxygen free radicals” (Biomedical Primate Research Centre (BPRC), priority 1998, dated 2000):
# What was measured:
# [1] = tested on: Con A-activated splenocytes; test: ELISPOT enumeration of IFN-γ and IL-4 producing cells in Con A-stimulated spleen cell cultures with culture supplements; assay type: cell-based, rat
# Procedure: The aseptically removed spleen was gently crushed with the blunt end of a 5-ml syringe plunger and passaged through a fine mesh nylon screen. Erythrocytes were hemolysed by adding cold sterile water for 20 sec. to cell pellets followed by the addition of half the volume of 2.7% saline. The number of cells was determined by use of Türk's solution and cell viability by means of trypan blue exclusion. Cell suspensions in which the viability was less than 85% were excluded from the studies. Splenocytes were washed twice with CM5, adjusted to 4 x 10^6 cells/ml, transferred to a 24-well culture plate (1.0 ml/well) and stimulated with Con A (5 µg/ml) in the presence or absence of various supplements (as indicated in the text) for 40 h at 37°C in a humidified atmosphere containing 5% CO2. Thereafter, non-adherent cells were collected and subjected to ELISPOT analyses as described below.
# The ELISPOT assay for detecting single cytokine secreting cells has been detailed previously (17). Briefly, the wells of PVC microplates were coated with monoclonal antibodies specific for rat IFN-γ or rat IL-4. After washing and postcoating, 100 µl suspensions of Con A-activated splenocytes were pipetted into the wells. The cells were allowed the produce cytokines for either 4 h (IFN-γ pc) or 16 h (IL-4 pc). Thereafter, cells were lysed for 10 minutes with ice-cold distilled water. Subsequently, the wells were thoroughly washed with PBS containing 0.05% Tween-20. Spots were detected by the sequential incubation of biotinylated rabbit anti-cytokine antibodies and goat anti-biotin antibodies conjugated to alkaline phosphatase (AP). The AP substrate 5-bromo-4-chloro-3-indolyl phosphate was used to produce blue zones ('spots') that visualised the positions of the individual spot-forming cells (SFC). SFC were enumerated by image analysis using a stereo microscope coupled to a colour video camera and Micro Image software from Olympus Optical Co. The frequency of spontaneously occurring SFC was always less than 1% of the mitogen-induced frequency.
# peritoneal macrophages [2] = test: H2O2 production by purified peritoneal macrophages (homovanillic acid/HRP); assay type: cell-based, rat; conditions: stimulus PMA 5 ng/ml
# Procedure: The spontaneous or PMA/IFN-γ-triggered release of H2O2 was determined by the same method as described for splenocytes. Macrophage monolayers were incubated for 24 h in CM10 with or without rat IFN-γ (1000 U/ml). Subsequently, cells were washed twice with prewarmed PBS and incubated for 1 h in 1.0 ml PBS containing […] CaCl2, […] MgCl2, […] D-glucose, 1.0 unit HRP, […] homovanillic acid and 5 ng/ml PMA. After termination of the reaction, the amount of oxidised homovanillic acid in the supernatant was determined spectrofluorometrically. The cellular proteins in the wells were solubilized by adding 250 µl 0.5% (w/v) sodium dodecylsulphate in 0.2 N NaOH. The amount of solubilized protein was determined by a modification of the Lowry method (19). The results are expressed as nmoles H2O2 per mg of protein.
# (§1) Peritoneal cells were collected from rats by lavage with 10 ml ice-cold saline containing 50 units/ml heparin. Cells were washed twice with CM10 and resuspended in CM10 to a concentration of 2 x 10^6 cells/ml. Total cell counts were obtained with a Bürker hemocytometer and differential counts performed on centrifuge preparations fixed in absolute methanol and stained with Giemsa stain. The peritoneal cell suspension of Lewis rats consisted of 70 ± 3% macrophages, 13 ± 1% lymphocytes, 14 ± 1% granulocytes and 3 ± 1% mast cells (n = 3). […]
# peritoneal macrophages [3] = test: Superoxide anion production by purified peritoneal macrophages (SOD-inhibitable ferricytochrome C reduction); assay type: cell-based, rat; conditions: stimulus PMA 5 ng/ml
# Procedure: as §1, with “3). The peritoneal cells of BN rats were composed of 61 ± 2% macrophages, 12 ± 1% lymphocytes, 26 ± 2% granulocytes and 2 ± 1% mast cells (n = 3). Cells were fractionated by culturing them in the wells of a 24-well tissue culture plate at a concentration of 2 x 10^6 cells/ml in CM10.” for “3).”
# The pMØ monolayers were incubated for 20 h at 37°C in CM10 and subsequently washed (twice) with Hanks' balanced salt solution (HBSS) without phenol red. […] Each test was run in duplicate and the absorption increase at 550 nm was measured using a Beckmann DU-5 spectrophotometer. ^·O2^- release by splenocytes was determined after Con A activation of 4 x 10^6 cells for 20 h. […]
# [4] = GSH-mediated decomposition of GSNO in phosphate buffer (absorbance 335 nm, nitrite, nitrate, ammonia); assay type: physicochemical
# Procedure: For each experiment GSNO was prepared freshly. […] Three independent experiments were performed with similar results. […] Nitrite levels were measured by the colorimetric Griess reaction. Two independent experiments were performed which produced similar results.
# Nitrate was not detected in the solutions.
# [5] = BN normal rats, GSH 2 mM, Con A
# [6] = Lewis normal rats, GSH 2 mM, Con A
# [7] = excess reducing agent added to cultures, splenocytes from BN or Lewis rats
# [8] = normal Lewis rats, GSH 2 mM, no XO/HY, Con A 5 µg/ml (Table 5)
# [9] = BN naive rats, NMMA 180 µM added after 20 h Con A + 2 mM GSH, further 20 h
# [10] = BN naive rats, NMMA 360 µM added after 20 h Con A + 2 mM GSH, further 20 h
# [11] = BN, HgCl2-exposed rats, NMMA 180 µM added after 20 h Con A + 2 mM GSH, further 20 h
# [12] = BN, HgCl2-exposed rats, NMMA 360 µM added after 20 h Con A + 2 mM GSH, further 20 h
# [13] = Lewis naive rats, NMMA 180 µM added after 20 h Con A + 2 mM GSH, further 20 h
# [14] = Lewis naive rats, NMMA 360 µM added after 20 h Con A + 2 mM GSH, further 20 h
# [15] = Lewis, HgCl2-exposed rats, NMMA 180 µM added after 20 h Con A + 2 mM GSH, further 20 h
# [16] = Lewis, HgCl2-exposed rats, NMMA 360 µM added after 20 h Con A + 2 mM GSH, further 20 h
compound,measurement,setting,value
"OO [H2O2, hydrogen peroxide]",frequencies of IFN-γ pc and IL-4 pc,[1]; H2O2 up to 100 µM added to cultures (not shown),did not affect
"CCCCCCCCCCCCCC(=O)O[C@@H]1[C@@H](C)[C@@]2(O)[C@@H](C=C(CO)C[C@]3(O)C(=O)C(C)=C[C@@H]23)[C@@H]2C(C)(C)[C@]12OC(C)=O [PMA, phorbol 12-myristate 13-acetate]",ROI H2O2 (nmol/mg protein),peritoneal macrophages [2]; BN normal rats,8.7 nmol/mg protein
same,ROI H2O2 (nmol/mg protein),peritoneal macrophages [2]; Lewis normal rats,1.9 nmol/mg protein
same,ROI ^·O2^- (nmol/mg protein),peritoneal macrophages [3]; BN normal rats,388.2 nmol/mg protein
same,ROI ^·O2^- (nmol/mg protein),peritoneal macrophages [3]; Lewis normal rats,62.1 nmol/mg protein
"N[C@@H](CCC(=O)N[C@@H](CSN=O)C(=O)NCC(=O)O)C(=O)O [GSNO, S-nitrosoglutathione]",Nitrate in the solutions,[4]; GSH-triggered decomposition of GSNO,not detected
same,decomposition of GSNO,"[4]; absence of GSH, 0.1 mM, 42 h, room temperature (not shown)",no significant decomposition
same,major decomposition product,[4]; molar ratios exceeding 20 (Fig. 5),NH3
same,time in which decomposition was almost completed,[4]; ratio of GSH:GSNO of 320 (fig. 3),~5 h
"N[C@@H](CCC(=O)N[C@@H](CS)C(=O)NCC(=O)O)C(=O)O [GSH, Glutathione]",IFN-γ pc per 1x10^4 MNC,[1]; [5],98 ± 11 per 1 x 10^4 MNC
same,IL-4 pc per 2x10^5 MNC,[1]; [5],60 ± 5 per 2 x 10^5 MNC
same,ratio IFN-γ pc/IL-4 pc,[1]; [5],34
same,IFN-γ pc per 1x10^4 MNC,[1]; [6],139 ± 14 per 1 x 10^4 MNC
same,IL-4 pc per 2x10^5 MNC,[1]; [6],11 ± 3 per 2 x 10^5 MNC
same,ratio IFN-γ pc/IL-4 pc,[1]; [6],253
same,enhancement of the ratio of IFN-γ pc/IL-4 pc,[1]; [7],approximately 10 fold
same,IFN-γ pc per 1x10^4 MNC,[1]; [8],103 ± 23 per 1 x 10^4 MNC
same,IL-4 pc per 2x10^5 MNC,[1]; [8],6 ± 1 per 2 x 10^5 MNC
same,ratio IFN-γ pc/IL-4 pc,[1]; [8],343
"CNC(=N)NCCC[C@H](N)C(=O)O [NMMA, N^G-monomethyl-L-arginine]",IFN-γ pc per 1x10^4 MNC,[1]; [9],209 ± 19 per 1x10^4 MNC
same,IL-4 pc per 2x10^5 MNC,[1]; [9],32 ± 6 per 2x10^5 MNC
same,ratio pc IFN-γ/IL-4,[1]; [9],131
same,IFN-γ pc per 1x10^4 MNC,[1]; [10],251 ± 14 per 1x10^4 MNC
same,IL-4 pc per 2x10^5 MNC,[1]; [10],30 ± 2 per 2x10^5 MNC
same,ratio pc IFN-γ/IL-4,[1]; [10],167
same,IFN-γ pc per 1x10^4 MNC,[1]; [11],71 ± 11 per 1x10^4 MNC
same,IL-4 pc per 2x10^5 MNC,[1]; [11],54 ± 11 per 2x10^5 MNC
same,ratio pc IFN-γ/IL-4,[1]; [11],26
same,IFN-γ pc per 1x10^4 MNC,[1]; [12],92 ± 17 per 1x10^4 MNC
same,IL-4 pc per 2x10^5 MNC,[1]; [12],20 ± 5 per 2x10^5 MNC
same,ratio pc IFN-γ/IL-4,[1]; [12],92
same,enhancement of the ratio of IFN-γ pc/IL-4 pc,"[1]; HgCl2-exposed rats, BN splenocyte cultures",11 fold
same,enhancement of the ratio of IFN-γ pc/IL-4 pc,"[1]; HgCl2-exposed rats, Lewis splenocyte cultures",2 fold
same,IFN-γ pc per 1x10^4 MNC,[1]; [13],175 ± 9 per 1x10^4 MNC
same,IL-4 pc per 2x10^5 MNC,[1]; [13],14 ± 7 per 2x10^5 MNC
same,ratio pc IFN-γ/IL-4,[1]; [13],250
same,IFN-γ pc per 1x10^4 MNC,[1]; [14],178 ± 11 per 1x10^4 MNC
same,IL-4 pc per 2x10^5 MNC,[1]; [14],13 ± 2 per 2x10^5 MNC
same,ratio pc IFN-γ/IL-4,[1]; [14],274
same,IFN-γ pc per 1x10^4 MNC,[1]; [15],112 ± 5 per 1x10^4 MNC
same,IL-4 pc per 2x10^5 MNC,[1]; [15],10 ± 5 per 2x10^5 MNC
same,ratio pc IFN-γ/IL-4,[1]; [15],224
same,IFN-γ pc per 1x10^4 MNC,[1]; [16],135 ± 10 per 1x10^4 MNC
same,IL-4 pc per 2x10^5 MNC,[1]; [16],8 ± 2 per 2x10^5 MNC
same,ratio pc IFN-γ/IL-4,[1]; [16],338
same,increase in the ratio of IFN-γ pc/IL-4 pc,[1]; splenocyte cultures of naive BN rats,4 fold
N[C@@H](CS)C(=O)O [cysteine],enhancement of the ratio of IFN-γ pc/IL-4 pc,[1]; [7],approximately 10 fold
